Values of other authors, collected in patent US7947714B2, “Piperidine glycine transporter inhibitors” (Merck, Sharp & Dohme Corp., priority 2005, dated 2011).

What was measured:
[1] = test system: NMDA receptor; details: rat; blockade of GlyT1
[2] = mice
[3] = high doses, oral, add-on to standard neuroleptic therapy
[4] = patients suffering from schizophrenia, poorly responsive to antipsychotic drugs

In the case of CN(CCC(Oc1ccc(-c2ccccc2)cc1)c1ccc(F)cc1)CC(=O)O (stereo not shown) [NFPS, (N-[3-(4′-fluorophenyl)-3-(4′-phenylphenoxy)propyl])sarcosine], the “effect on NMDA receptor activity and NMDA receptor-dependent long-term potentiation” value [1] is listed as “potentiates NMDA receptor activity and NMDA receptor-dependent long-term potentiation” and the “effect on pre-pulse inhibition (measure of sensory gating)” value [2] is listed as “enhance pre-pulse inhibition”.
For NCC(=O)O [glycine], the “effect on symptoms of schizophrenia” value [3] is listed as “improvement of the symptoms”.
For CNCC(=O)O [sarcosine], the “effect on positive, negative and cognitive symptoms of schizophrenia” value [4] is given as “beneficial effect was observed on positive, negative and cognitive symptoms”.
